Data published in patent publication US4833146A, “Tertiary hydroxyalkylxanthines, medicaments containing them and their use” (priority 1985, dated 1989).
Where two headings read alike, the source gives them in different places.

Columns and labels:
[1] = system: regional cerebral circulation; assay: Action on regional cerebral circulation of anesthetized cats (heat conducting technique); type: in vivo, cats of both sexes; details: Felis catus, iv, 3 mg/kg i.v., read-out: Average increase in cerebral circulation as Δλ in %
Description: The percentage increase in the heat transport number λ after administration of the product is thus a measure of the improvement in circulation.
The compounds were administered intravenously in aqueous solution. The dose was 3 mg of test substance per kg of body weight. 3 to 5 individual experiments were carried out for each test product, and the average percentage increase in cerebral circulation was determined from the measurement data obtained.

in vivo = details: mouse, in vivo, single dose, 7 days, read-out: Toxicity LD50 (mouse)
Description: (§1) The LD50 ranges were determined by the standard method via the mortality which arose within 7 days in NMRI mice following a single intravenous (i.v.) or intraperitoneal (i.p.) dose (NMRI=Naval Medical Research Institute).

[2] = animals and humans, cited from earlier work; for "liver first-pass" effect: especially on oral administration; for biotransformation: enzymatic oxidation of the oxo- or hydroxyhexyl side chain
ischemic skeletal muscle [3] = assay: Chronic experiment: contractility of the ischemic skeletal muscle in rats with a ligated right femoral artery; type: in vivo; details: 25 mg/kg daily oral, 20 days
Description: The superiority of the xanthines of the formula I was also to be seen from another chronic experiment in which the influence on the contractility of the ischemic skeletal muscle in rats with a ligated right femoral artery was investigated. The animals received the particular test product in a daily oral dose of 25 mg/kg by a stomach tube for 20 days. Thereafter, the fatigability of the ischemic muscle on electrical stimulation with about 80 contractions per minute was determined via the decrease in contractile force after stimulation for 1, 15 and 45 minutes in comparison with untreated control animals. […] This improvement was accompanied by an increase in the mitochondrial respiratory control rate (RCR). […] The compounds according to the invention are accordingly also suitable for the treatment of muscular energy metabolism disorders of various causes, particularly mitochondrial myopathy.

[4] = system: ischemic skeletal muscle (tibialis anterior and extensor digitorum longus); assay: Chronic experiment on rats with unilateral occlusion of the iliac artery: metabolism in ischemic skeletal muscle (histochemical staining); type: in vivo
[5] = system: isolated perfused rabbit ear; assay: Inhibiting effect on vascular contraction induced with norfenefrine on the isolated perfused rabbit ear
Excerpt: It is today generally recognized that exclusively vasodilating drugs or agents with a very potent vasodilating action component are unsuitable for the treatment of disturbances in the microcirculation because, on the one hand, the physiological vasodilatory reserve as a rule is already completely exhausted, and on the other hand there is the risk of a steal phenomenon, which means a harmful redistribution of the nutritive blood flow in the microcirculation at the expense of the already undersupplied diseased tissue. The inhibiting effect on vascular contraction induced with norfenefrine on the isolated perfused rabbit ear was therefore investigated.

ischemic skeletal muscle [6] = assay: Action on disturbed peripheral arterial circulation: pO2 in ischemic skeletal muscle, occlusion model on dogs; type: in vivo, male beagle dogs; set-up: key: W = % frequency of positive experiments × mean % pO2 increase; details: dog occlusion model
Description: The experimental animals used were male beagle dogs under sodium pentobarbital anesthesia (35 mg/kg intraperitoneally), on whose right hind extremity the femoral artery and a certain area of the lower leg muscle was exposed and on whose left hind extremity the femoral vein was exposed and a cannula inserted for infusion of the product and the femoral artery was exposed and a cannula inserted for blood pressure measurements. The animals were relaxed by administration of alcuronium chloride (0.1 mg/kg intravenously and then 0.05 mg/kg intraperitoneally every 30 minutes) and artificially ventilated in order on the one hand to avoid spontaneous contractions of the muscle with an adverse effect on the pO2 measurements and on the other hand to guarantee a uniform supply of respiratory oxygen. Another catheter inserted into the femoral vein of the right hind extremity was used to monitor the lactate concentration in the venous outflow. […]
In each experiment, the maximum percentage rise in the pO2 following administration of the substance during vascular occlusion was used as the measurement parameter for the action of the product (n=2-11). A dimensionless activity index W was calculated from three measurement values for each compound by obtaining the product of the percentage frequency of positive experiments and the average percentage increase in pO2 resulting from the positive individual values, this index both taking into account interindividual differences in the topology of the vascularization of the muscle and also recording responders and nonresponders to the test compounds and accordingly permitting a more reliable activity comparison amongst the individual products.

NMRI mice = assay: in vivo; details: single dose, 7 days, Table 3
Description: as §1

Row | SMILES | change in vivo at 3 mg/kg [1] [%] | Activity index W (ischemic skeletal muscle [6]; i.d. 25 mg/kg) | Activity index W (ischemic skeletal muscle [6]; i.v. 0.6 mg/kg/min) | further results
1 | COCn1cnc2c1c(=O)n(CCCCCC(C)(C)O)c(=O)n2C [Example 27] | 10.3 |  |  | LD50 at 168 h (in vivo; iv, Table 3): > 200 mg/kg
2 | CC(=O)CCCCn1c(=O)c2c(ncn2C)n(C)c1=O [Pentoxifylline, 3,7-dimethyl-1-(5-oxohexyl)-xanthine, reference compound] | 8.6 |  |  | "liver first-pass" effect [2]: pronounced; biotransformation [2]: rapid and complete; action in these experiments (ischemic muscle contractility) (ischemic skeletal muscle [3]): no action; influence on muscular metabolism in the ischemic skeletal muscle ([4]; chronic experiment, iliac artery occlusion): no direct influence; dilating effect on the norfenefrine-contracted vessels ([5]; concentration range from 10 to 100 μg/ml): dose-dependent dilating effect
3 | CCOCCn1cnc2c1c(=O)n(CCCCC(C)(C)O)c(=O)n2C [Example 39] |  | 1996 | 1567 | 
4 | CCCn1cnc2c1c(=O)n(CCCC(C)(C)O)c(=O)n2CC [Example 22] | 12 |  |  | LD50 at 168 h (in vivo; iv, Table 3): > 200 mg/kg
5 | CCCn1cnc2c1c(=O)n(CCCC(C)(C)O)c(=O)n2C [Example 12, 1-(4-Hydroxy-4-methylpentyl)-3-methyl-7-propylxanthine] |  | 2337 | 866 | 
6 | CC(O)CCCCn1c(=O)c2c(ncn2C)n(C)c1=O (stereo not shown) [1-(5-hydroxyhexyl)-3,7-dimethylxanthine] |  |  |  | "liver first-pass" effect [2]: pronounced; biotransformation [2]: rapid and complete
7 | Cn1c(=O)n(CCCCC(C)(C)O)c(=O)c2[nH]cnc21 [Example 6, 1-(5-Hydroxy-5-methylhexyl)-3-methylxanthine] |  | 700 |  | 
8 | CCOCn1cnc2c1c(=O)n(CCCCC(C)(C)O)c(=O)n2C [Example 5, 7-Ethoxymethyl-1-(5-hydroxy-5-methylhexyl)-3-methylxanthine] |  | 2909 |  | Activity index W (ischemic skeletal muscle [6]; i.v. 0.3 mg/kg/min): 2080; mitochondrial respiratory control rate (RCR) (ischemic skeletal muscle [3]): increase; contractility values reached in the ischemic muscle (ischemic skeletal muscle [3]; compared with healthy muscle of untreated animals): normal contractility values like those in the left healthy (non-ischemic) muscle of untreated animals being reached; muscular performance in the ischemic extremity (ischemic skeletal muscle [3]; electrical stimulation for 1, 15 and 45 minutes): significant improvement; LD50 at 168 h (in vivo; ip, Table 2): 300 to 600 mg/kg; LD50 at 168 h (in vivo; iv, Table 2): 150 to 300 mg/kg; proportion of oxidative fibers in the two muscles of the ischemic extremity ([4]; 3 mg/kg intraperitoneally three times daily, 5 weeks): increased significantly; inhibition of the norfenefrine action ([5]; up to a concentration of 100 μg/ml): no inhibition
9 | CCC(C)(O)CCCCn1c(=O)c2c(ncn2C)n(C)c1=O (stereo not shown) [Example 10, 1-(5-Hydroxy-5-methylheptyl)-3,7-dimethylxantine] |  | 1965 |  | 
10 | COCCOCn1cnc2c1c(=O)n(CCCCC(C)(C)O)c(=O)n2C [Example 44] |  |  | 1199 | 
11 | Cn1c(=O)c2c(ncn2CCCCC(C)(C)O)n(C)c1=O [Example 4, 7-(5-Hydroxy-5-methylhexyl)-1,3-dimethylxanthine] |  |  | 1300 | LD50 at 168 h (in vivo; iv, Table 2): 100 to 200 mg/kg
12 | CCCn1cnc2c1c(=O)n(CCCCC(C)(C)O)c(=O)n2CC [Example 18] | 9.4 |  | 1578 | LD50 at 168 h (in vivo; iv, Table 2): 100 to 200 mg/kg; Toxicity LD50 (mouse) (NMRI mice; i.v.): 100 to 200 mg/kg
13 | CCn1c(=O)n(CCCCC(C)(C)O)c(=O)c2c1ncn2C [Example 17] | 9.4 |  | 1525 | LD50 at 168 h (in vivo; iv, Table 3): > 200 mg/kg
14 | CCOCCOCCn1cnc2c1c(=O)n(CCCCC(C)(C)O)c(=O)n2CC [Example 48] | 14.6 |  |  | LD50 at 168 h (in vivo; iv, Table 3): > 200 mg/kg
15 | CCCn1c(=O)c2c(ncn2CCCCC(C)(C)O)n(C)c1=O [Example 3, 7-(5-Hydroxy-5-methylhexyl)-3-methyl-1-propylxanthine] | 15.5 | 1250 | 1650 | LD50 at 168 h (in vivo; iv, Table 2): 100 to 200 mg/kg; Toxicity LD50 (mouse) (NMRI mice; i.v.): 100 to 200 mg/kg
16 | Cn1c(=O)n(CCCCC(C)(C)O)c(=O)c2c1ncn2CCCO [Example 50] |  | 733 | 2631 | 
17 | CCCn1cnc2c1c(=O)n(CCCCC(C)(C)O)c(=O)n2C [Example 9, 1-(5-Hydroxy-5-methylhexyl)-3-methyl-7-propylxanthine] | 9.4 |  |  | LD50 at 168 h (in vivo; iv, Table 3): 100 to 200 mg/kg
18 | COCn1cnc2c1c(=O)n(CCC(C)(C)O)c(=O)n2C [Example 32] |  | 566 | 2650 | 
19 | CCn1c(=O)n(CCCCC(C)(C)O)c(=O)c2c1ncn2CCCOC [Example 43] | 19.8 |  |  | LD50 at 168 h (in vivo; iv, Table 3): > 200 mg/kg
20 | COCn1cnc2c1c(=O)n(CCCCC(C)(C)O)c(=O)n2C [Example 28] |  | 2100 |  | 
21 | CCn1c(=O)n(CCCCC(C)(C)O)c(=O)c2c1ncn2CCOC [Example 37] |  | 950 | 1400 | 
22 | CCCn1cnc2c1c(=O)n(CCCCCC(C)(C)O)c(=O)n2C [Example 16] | 25.8 |  | 999 | LD50 at 168 h (in vivo; ip, Table 2): 150 to 300 mg/kg; Toxicity LD50 (mouse) (NMRI mice; i.p.): 150 to 300 mg/kg
23 | Cn1cnc2c1c(=O)n(CCCCC(C)(C)O)c(=O)n2C [Example 14, 1-(5-Hydroxy-5-methylhexyl)-3,7-dimethylxanthine] |  |  | 960 | 
24 | CC(O)Cn1cnc2c1c(=O)n(CCCCC(C)(C)O)c(=O)n2C (stereo not shown) [Example 8, 1-(5-Hydroxy-5-methylhexyl)-7-(2-hydroxypropyl)-3-methylxanthine] |  |  | 1400 | 
